Test results as given in patent US8603986B2, “Compounds and methods for modulating cadherin-mediated processes” (McGill University, priority 2005, dated 2013).
“Also recorded” adds a separate entry of the source. Marks after values point to notes of the source that are not given here. Each block holds one sequence with its values, some of them ahead of it.

Experiments:
[1] = biological target: T1, N-cadherin/Fc chimeric protein (Homo sapiens, UniProt P19022); experiment: Cadherin/Fc binding assay: phage ELISA on N-cadherin/Fc; parameters: key to ELISA Phage Binding to N-Cadherin/Fc Chimeric Protein 1.2 mM calcium / ELISA Phage Binding to N-Cadherin/Fc Chimeric Protein 2 mM EDTA / ELISA Phage Binding to Cadherin/Fc Chimeric Proteins N−: +: Phage bound to the chimeric protein; −: No phage bound to the chimeric protein
T1 construct: extracellular domain of human N-cadherin (Asp160-Ala724); purchased R&D Systems, Minneapolis, Minn
T1 sequence (P19022 160-724): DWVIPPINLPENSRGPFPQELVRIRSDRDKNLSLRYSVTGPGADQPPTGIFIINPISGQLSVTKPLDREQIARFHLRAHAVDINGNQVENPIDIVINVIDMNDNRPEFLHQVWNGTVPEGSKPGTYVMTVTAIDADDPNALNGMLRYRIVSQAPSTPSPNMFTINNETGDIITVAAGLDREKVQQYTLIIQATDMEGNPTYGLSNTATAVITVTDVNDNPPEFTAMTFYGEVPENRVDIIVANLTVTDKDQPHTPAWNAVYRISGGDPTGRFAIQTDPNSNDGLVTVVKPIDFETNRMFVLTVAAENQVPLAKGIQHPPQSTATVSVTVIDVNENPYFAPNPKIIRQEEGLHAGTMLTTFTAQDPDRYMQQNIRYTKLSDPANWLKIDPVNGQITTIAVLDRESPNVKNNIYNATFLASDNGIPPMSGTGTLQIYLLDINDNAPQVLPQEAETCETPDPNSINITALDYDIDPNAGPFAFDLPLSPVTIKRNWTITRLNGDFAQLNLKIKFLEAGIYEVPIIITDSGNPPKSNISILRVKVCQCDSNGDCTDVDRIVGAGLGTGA
Description: (§1) The peptide libraries, Ph.D.-C7C™ and Ph.D.-12™ (New England BioLabs) were used in this study. These libraries are composed of 2×10^9 randomized 7 amino acid sequences flanked by cysteine residues and linear 12 amino acid sequences, respectively. The amino acid sequences are incorporated into the minor coat protein, pIII, of M13 phage. The N-cadherin/Fc chimeric protein (R&D Systems, Minneapolis, Minn.) consists of the extracellular domain of human N-cadherin (Asp160-Ala724) and the Fc region of human IgG1. The E-cadherin/Fc chimeric protein (R&D Systems, Minneapolis, Minn.) consists of the extracellular domain of human E-cadherin (Asp155-Ile707) and the Fc region of human IgG1.
The binding of each clone to the cadherin/Fc chimeric proteins was confirmed by ELISA. Wells of ProBind microtiter plates (Falcon) were coated with either N-cadherin/Fc or E-cadherin/Fc chimeric protein (100 ng/well) or human IgG1 (which contains the Fc fragment) (100 ng/well). […] Non-coated wells were also used to exclude any phage that bound to the plastic surface. […] M13 phage without any insert were used to control the non-specific binding of the phage itself to the target. […] […] Horseradish peroxidase substrate, TMB (Sigma), was added to each well (100 μl/well and after color development the reaction was stopped by addition of 100 μl 0.5 M sulphuric acid to each well. The intensity of the color was measured at 450 nm.
(§2) The phage clones shown to bind to the N-cadherin/Fc chimeric protein by ELISA were also evaluated for their ability to bind to E-cadherin/Fc and VE-cadherin/Fc chimeric proteins. The phage clones shown to bind to the E-cadherin/Fc chimeric protein by ELISA were also evaluated for their ability to bind to N-cadherin/Fc and VE-cadherin/Fc chimeric proteins. The same ELISA protocol described in the previous section was used to perform this evaluation with the exception that the wells were coated with either 100 ng N-cadherin/Fc, E-cadherin/Fc or VE-cadherin/Fc chimeric protein (R&D Systems, Minneapolis, Minn.).

[2] = biological target: T2, E-cadherin/Fc chimeric protein (Homo sapiens, UniProt P12830); experiment: Cadherin/Fc binding assay: phage ELISA on E-cadherin/Fc; parameters: key: +: Phage bound to the chimeric protein; −: No phage bound to the chimeric protein
T2 construct: extracellular domain of human E-cadherin (Asp155-Ile707); purchased R&D Systems, Minneapolis, Minn
T2 sequence (P12830 155-707): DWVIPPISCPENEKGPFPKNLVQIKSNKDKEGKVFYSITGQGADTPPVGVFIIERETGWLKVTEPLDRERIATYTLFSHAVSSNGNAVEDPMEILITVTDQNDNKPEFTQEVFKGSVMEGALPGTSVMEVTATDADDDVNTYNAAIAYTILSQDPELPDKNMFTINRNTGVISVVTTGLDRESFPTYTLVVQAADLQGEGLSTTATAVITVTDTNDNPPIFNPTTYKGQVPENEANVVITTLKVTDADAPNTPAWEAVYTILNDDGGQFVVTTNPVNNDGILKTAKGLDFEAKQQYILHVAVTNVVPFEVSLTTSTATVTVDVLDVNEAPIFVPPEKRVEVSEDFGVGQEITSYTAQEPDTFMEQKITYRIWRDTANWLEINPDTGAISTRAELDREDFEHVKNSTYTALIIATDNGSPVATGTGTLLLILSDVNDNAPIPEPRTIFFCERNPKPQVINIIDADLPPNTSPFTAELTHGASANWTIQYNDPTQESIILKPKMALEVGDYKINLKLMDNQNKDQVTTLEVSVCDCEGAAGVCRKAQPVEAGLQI
Description: as §1
(§3) The binding of each clone to the cadherin/Fc chimeric proteins was confirmed by ELISA. Wells of ProBind microtiter plates (Falcon) were coated with either N-cadherin/Fc or E-cadherin/Fc chimeric protein (100 ng/well) or human IgG1 (which contains the Fc fragment) (100 ng/well). After blocking the nonspecific sites with TBS containing 3% BSA and 1.2 mM CaCl2 for 1 h at 37° C., phage clones (10^9 pfu) diluted in TBST containing 3% BSA and 1.2 mM CaCl2 (100 μl/well). Non-coated wells were also used to exclude any phage that bound to the plastic surface. After 1 h incubation at room temperature, wells were washed 3 times with TBST containing 3% BSA and 1.2 mM CaCl2. M13 phage without any insert were used to control the non-specific binding of the phage itself to the target. Monoclonal anti-M13 antibody conjugated to horseradish peroxidase (Amersham Biosciences, Piscataway, N.J.) was diluted in TBST containing 3% BSA and 1.2 mM CaCl2 (1:2,000) and added to each well (100 μl/well). After 1 h incubation at room temperature, wells were washed three times with TBST containing 3% BSA and 1.2 mM CaCl2 and once with TBS containing 1.2 mM CaCl2. Horseradish peroxidase substrate, TMB (Sigma), was added to each well (100 μl/well and after color development the reaction was stopped by addition of 100 μl 0.5 M sulphuric acid to each well. The intensity of the color was measured at 450 nm.
as §2

[3] = biological target: T3, VE-cadherin/Fc chimeric protein (Homo sapiens, UniProt P33151); experiment: Cadherin specificity: phage ELISA on VE-cadherin/Fc; assay type: binding; parameters: key: +: Phage bound to the chimeric protein; −: No phage bound to the chimeric protein
T3 construct: purchased R&D Systems, Minneapolis, Minn
T3 sequence (P33151 with tags, fused parts or gaps limits assumed, species assumed): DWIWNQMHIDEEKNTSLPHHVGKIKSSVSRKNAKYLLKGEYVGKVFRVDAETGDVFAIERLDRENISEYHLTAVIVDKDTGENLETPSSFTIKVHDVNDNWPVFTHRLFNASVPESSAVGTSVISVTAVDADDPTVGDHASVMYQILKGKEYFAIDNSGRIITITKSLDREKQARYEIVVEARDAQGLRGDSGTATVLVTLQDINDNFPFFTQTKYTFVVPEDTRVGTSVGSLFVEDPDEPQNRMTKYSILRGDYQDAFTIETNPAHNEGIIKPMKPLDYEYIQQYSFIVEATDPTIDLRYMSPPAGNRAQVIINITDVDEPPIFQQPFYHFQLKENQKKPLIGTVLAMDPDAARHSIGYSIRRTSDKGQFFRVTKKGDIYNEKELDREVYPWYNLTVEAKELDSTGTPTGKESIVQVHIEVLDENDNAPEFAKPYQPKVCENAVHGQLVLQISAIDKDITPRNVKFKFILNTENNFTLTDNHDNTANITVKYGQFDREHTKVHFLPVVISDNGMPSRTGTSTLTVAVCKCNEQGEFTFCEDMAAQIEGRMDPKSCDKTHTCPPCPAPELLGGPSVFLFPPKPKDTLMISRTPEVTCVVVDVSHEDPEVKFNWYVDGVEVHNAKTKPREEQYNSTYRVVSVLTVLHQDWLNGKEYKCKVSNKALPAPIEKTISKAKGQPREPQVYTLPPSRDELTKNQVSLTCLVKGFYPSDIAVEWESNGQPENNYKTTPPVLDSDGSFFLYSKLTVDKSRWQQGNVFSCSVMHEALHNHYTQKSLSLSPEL
Procedure: as §3, §2

[4] = Table 4, Ph.D.-12 library clones
[5] = Table 2, Ph.D.-C7C library clones
[6] = Table 3, clones selected in the absence of calcium
[7] = Table 7, Ph.D.-12 clones selected on E-cadherin/Fc
[8] = Table 6, Ph.D.-C7C clones selected on E-cadherin/Fc

Sequence: KWELTYFANSFP [Nc 12-a3]
- ELISA Phage Binding to N-Cadherin/Fc Chimeric Protein 1.2 mM calcium [1, 4]: +
- ELISA Phage Binding to N-Cadherin/Fc Chimeric Protein 2 mM EDTA [1, 4]: +
- ELISA Phage Binding to Cadherin/Fc Chimeric Proteins E− [2, 4]: −
- ELISA Phage Binding to Cadherin/Fc Chimeric Proteins VE− [3, 4]: −

Sequence: WLQPYFPSY [Nc a5]
- ELISA Phage Binding to N-Cadherin/Fc Chimeric Protein 1.2 mM calcium [1, 5]: +
- ELISA Phage Binding to N-Cadherin/Fc Chimeric Protein 2 mM EDTA [1, 5]: −
- ELISA Phage Binding to Cadherin/Fc Chimeric Proteins E− [2, 5]: −
- ELISA Phage Binding to Cadherin/Fc Chimeric Proteins VE− [3, 5]: −

Sequence: WQVCVGAHC [NoCa11]
- phage binding to N-cadherin/Fc chimeric protein by ELISA [1]: good ELISA signal; also recorded: strong ELISA signal
- ELISA Phage Binding to N-Cadherin/Fc Chimeric Protein 1.2 mM calcium [1, 6]: +
- ELISA Phage Binding to N-Cadherin/Fc Chimeric Protein 2 mM EDTA [1, 6]: +
- ELISA Phage Binding to Cadherin/Fc Chimeric Proteins E− [2, 6]: −
- ELISA Phage Binding to Cadherin/Fc Chimeric Proteins VE− [3, 6]: −

Sequence: WELCVSSSC [Nc 25]
- ELISA Phage Binding to N-Cadherin/Fc Chimeric Protein 1.2 mM calcium [1, 5]: +
- ELISA Phage Binding to N-Cadherin/Fc Chimeric Protein 2 mM EDTA [1, 5]: −
- ELISA Phage Binding to Cadherin/Fc Chimeric Proteins E− [2, 5]: −
- ELISA Phage Binding to Cadherin/Fc Chimeric Proteins VE− [3, 5]: −

Sequence: WQFCYAQHC [Ec 2]
- ELISA Phage Binding to Cadherin/Fc Chimeric Proteins N− [1, 8]: +
- ELISA Phage Binding to Cadherin/Fc Chimeric Proteins E− [2, 8]: +
- ELISA Phage Binding to Cadherin/Fc Chimeric Proteins VE− [3, 8]: −

Sequence: WQMVLCPAC [Ec 4]
- ELISA Phage Binding to Cadherin/Fc Chimeric Proteins N− [1, 8]: +
- ELISA Phage Binding to Cadherin/Fc Chimeric Proteins E− [2, 8]: +
- ELISA Phage Binding to Cadherin/Fc Chimeric Proteins VE− [3, 8]: −

Sequence: WQWCFKATC [Ec 21]
- ELISA Phage Binding to Cadherin/Fc Chimeric Proteins N− [1, 8]: +
- ELISA Phage Binding to Cadherin/Fc Chimeric Proteins E− [2, 8]: +
- ELISA Phage Binding to Cadherin/Fc Chimeric Proteins VE− [3, 8]: −

Sequence: WTWHWPPCC [Ec a22]
- ELISA Phage Binding to Cadherin/Fc Chimeric Proteins N− [1, 8]: +
- ELISA Phage Binding to Cadherin/Fc Chimeric Proteins E− [2, 8]: +
- ELISA Phage Binding to Cadherin/Fc Chimeric Proteins VE− [3, 8]: −

Sequence: QWEIRYPWPSMG [Ec 12-a1]
- ELISA Phage Binding to Cadherin/Fc Chimeric Proteins N− [1, 7]: +
- ELISA Phage Binding to Cadherin/Fc Chimeric Proteins E− [2, 7]: +
- ELISA Phage Binding to Cadherin/Fc Chimeric Proteins VE− [3, 7]: −

Sequence: WEFSICETC [Nc 5]
- ELISA Phage Binding to N-Cadherin/Fc Chimeric Protein 1.2 mM calcium [1, 5]: +
- ELISA Phage Binding to N-Cadherin/Fc Chimeric Protein 2 mM EDTA [1, 5]: −
- ELISA Phage Binding to Cadherin/Fc Chimeric Proteins E− [2, 5]: −
- ELISA Phage Binding to Cadherin/Fc Chimeric Proteins VE− [3, 5]: −

Sequence: WEVRLTEKC [Nc a3]
- ELISA Phage Binding to N-Cadherin/Fc Chimeric Protein 1.2 mM calcium [1, 5]: +
- ELISA Phage Binding to N-Cadherin/Fc Chimeric Protein 2 mM EDTA [1, 5]: −
- ELISA Phage Binding to Cadherin/Fc Chimeric Proteins E− [2, 5]: −
- ELISA Phage Binding to Cadherin/Fc Chimeric Proteins VE− [3, 5]: −

Sequence: SWELYYPLRANL [Ec 12-a2]
- ELISA Phage Binding to Cadherin/Fc Chimeric Proteins N− [1, 7]: +
- ELISA Phage Binding to Cadherin/Fc Chimeric Proteins E− [2, 7]: +
- ELISA Phage Binding to Cadherin/Fc Chimeric Proteins VE− [3, 7]: −

Sequence: NWFIDFPVYPPL [Nc 12-a1]
- ELISA Phage Binding to N-Cadherin/Fc Chimeric Protein 1.2 mM calcium [1, 4]: +
- ELISA Phage Binding to N-Cadherin/Fc Chimeric Protein 2 mM EDTA [1, 4]: +
- ELISA Phage Binding to Cadherin/Fc Chimeric Proteins E− [2, 4]: −
- ELISA Phage Binding to Cadherin/Fc Chimeric Proteins VE− [3, 4]: −

Sequence: WEVCLTEKC [Nc 15]
- ELISA Phage Binding to N-Cadherin/Fc Chimeric Protein 1.2 mM calcium [1, 5]: +
- ELISA Phage Binding to N-Cadherin/Fc Chimeric Protein 2 mM EDTA [1, 5]: −
- ELISA Phage Binding to Cadherin/Fc Chimeric Proteins E− [2, 5]: −
- ELISA Phage Binding to Cadherin/Fc Chimeric Proteins VE− [3, 5]: −

Other lines, results leading:

- ELISA Phage Binding to Cadherin/Fc Chimeric Proteins N− [1, 7]: +
- ELISA Phage Binding to Cadherin/Fc Chimeric Proteins E− [2, 7]: +
- ELISA Phage Binding to Cadherin/Fc Chimeric Proteins VE− [3, 7]: −
Sequence: QWQLHWPASKQA [Ec 12-11]

- ELISA Phage Binding to Cadherin/Fc Chimeric Proteins N− [1, 7]: +
- ELISA Phage Binding to Cadherin/Fc Chimeric Proteins E− [2, 7]: +
- ELISA Phage Binding to Cadherin/Fc Chimeric Proteins VE− [3, 7]: −
Sequence: SWTFYWPDAQLG [Ec 12-06]

- ELISA Phage Binding to Cadherin/Fc Chimeric Proteins N− [1, 7]: +
- ELISA Phage Binding to Cadherin/Fc Chimeric Proteins E− [2, 7]: +
- ELISA Phage Binding to Cadherin/Fc Chimeric Proteins VE− [3, 7]: −
Sequence: GWTVFYPDNLRP [Ec 12-18]

- ELISA Phage Binding to Cadherin/Fc Chimeric Proteins N− [1, 7]: +
- ELISA Phage Binding to Cadherin/Fc Chimeric Proteins E− [2, 7]: +
- ELISA Phage Binding to Cadherin/Fc Chimeric Proteins VE− [3, 7]: −
Sequence: EWDFFWPPTQTP [Ec 12-19]

- ELISA Phage Binding to Cadherin/Fc Chimeric Proteins N− [1, 7]: +
- ELISA Phage Binding to Cadherin/Fc Chimeric Proteins E− [2, 7]: +
- ELISA Phage Binding to Cadherin/Fc Chimeric Proteins VE− [3, 7]: −
Sequence: EWTFQWNSYPAD [Ec 12-10]

- ELISA Phage Binding to N-Cadherin/Fc Chimeric Protein 1.2 mM calcium [1, 4]: +*
- ELISA Phage Binding to N-Cadherin/Fc Chimeric Protein 2 mM EDTA [1, 4]: +
- ELISA Phage Binding to Cadherin/Fc Chimeric Proteins E− [2, 4]: −**
- ELISA Phage Binding to Cadherin/Fc Chimeric Proteins VE− [3, 4]: −
Sequence: HWYITTGPVREK [Nc 12-01]
